Experiments:
[1] = tested on: heart monoamines and their metabolites; assay: Inhibition of MAO in vivo: heart monoamines and their metabolites (HPLC); set-up: species or system male Sprague-Dawley rats; NE, Table V (heart) / DOPAC, Table V (heart) / 5HT, Table V (heart) / 5HIAA, Table V (heart): unit not given beside the values; settings: for 5HIAA, Table V (heart) / DOPAC, Table V (heart) / NE, Table V (heart) / HVA, Table V (heart) / 5HT, Table V (heart): 18 h; for 5HIAA, Table V (heart): control 7 ± 1; for DOPAC, Table V (heart): control 78 ± 22; for NE, Table V (heart): control 735 ± 100; for HVA, Table V (heart): control 38 ± 9; for 5HT, Table V (heart): control 808 ± 50
Experimental: The ability of a compound of Formula I to inhibit MAO can be determined in vivo using brain and heart samples obtained from the ex vivo study reported in Example 9. Monoamines and their deaminated metabolites were determined by HPLC with electrochemical detection by the method of J. Wagner et al, J. Neurochem. 38 1241-1254.
When (Z)-2-(2',4'-dichlorophenoxy)methyl-3-fluoroallylamine is tested according to the above-described procedure, the results given in Tables IV and V are obtained. In these tables the following abbreviations are used: […]

MAO [2] = assay: Inhibition of MAO ex vivo, p-tyramine as substrate; assay type: in vivo, male Sprague-Dawley rats; settings: 18 h, 14C p-tyramine
Experimental: (§1) The ability of a compound of Formula I to inhibit MAO can be determined ex vivo by the following procedure:
(§2) The test compound is administered orally (p.o.) to 300-350 g male Sprague-Dawley rats (Charles River, France) and the animals are killed 18 hours after treatment. The brain, heart, liver and/or duodenum is removed and either a crude homogenate or a mitochondrial fraction, described in Example 5, Part (A), is prepared. MAO activity is determined in the homogenates using ^14 C p-tyramine, as the substrate. Table III gives the results of the testing of (Z)-2-(2',4'-dichlorophenoxy)methyl-3-fluoroallylamine according to the above described procedure. Selectivity can be determined by repeating the above-described test using either ^14 C […] (for MAO-A) or ^14 C phenethylamine (for MAO-B) as the substrate for determining the percentage inhibition.

MAO [3] = assay: Inhibition of MAO in vitro, partially purified rat brain mitochondria, 14C p-tyramine substrate; assay type: biochemical; settings: tested as hydrochloride salt
Source text: Inhibition of MAO--In vitro testing
(A) The ability of a compound of Formula I to inhibit MAO can be determined in vitro by the method of A. Christmas et al., Br. J. Pharmacol., 45, 490 (1972) in partially purified mitochondria from rat brain using ^14 C p-tyramine as the substrate. The MAO inhibitory activity of a compound is expressed as the "IC50 " value, which is the molar concentration required to produce 50% inhibition of the enzyme.

MAO [4] = assay: Time-dependent kinetics and irreversibility of MAO inhibition, rat brain mitochondria, 14C p-tyramine; assay type: biochemical
Experimental: (B) The compounds of Formula I can be tested to determine whether or not the MAO inhibition follows time-dependent kinetics by the procedure described below:
(§3) Mitochondria are prepared from rat brain by homogenation in phosphate buffer (0.1 M, pH 7.2) followed by differential centrifugation. The mitochondria are suspended in the same buffer, the test compound is added at the desired concentration, and the system is incubated. At different time intervals, aliquots are taken and MAO activity is measured using ^14 C p-tyramine (a mixed substrate) as the substrate (See A. Christmas et al., supra).

MAO-A = assay: Inhibition of MAO-A ex vivo; assay type: in vivo, male Sprague-Dawley rats; settings: p.o.; 1080 min
Experimental: as §1, §2

MAO-B versus MAO-A = assay: Selectivity of inhibition of MAO-B versus MAO-A in vitro (14C phenethylamine / 14C 5-hydroxytryptamine); assay type: biochemical; settings: rat, brain mitochondria
Experimental: as §3
(C) The selectivity of a compound of Formula I with respect to inhibition of MAO-A and MAO-B can be determined by repeating the procedure of Part B and measuring the MAO activity using ^14 C 5-hydroxytryptamine (a preferred substrate for MAO-A) and ^14 C phenethylamine (a preferred substrate for MAO-B) as the substrate.

MAO-B = assay: Inhibition of MAO ex vivo, phenethylamine as substrate (MAO-B); assay type: in vivo, male Sprague-Dawley rats; settings: for % Inhibition, Brain (2) / % Inhibition, Duodenum (2) / % Inhibition, Heart (2) / % Inhibition, Liver (2): 18 h, 14C phenethylamine
Experimental: as §1, §2

[5] = tested on: heart rate response to p-tyramine; assay: Cheese effect: potentiation of response to intravenous p-tyramine, pithed rats; assay type: in vivo, male Sprague-Dawley rats; settings: for Potentiation of heart rate response to p-tyramine: 18 h, p-tyramine i.v.
Experimental: The following test procedures can be employed to assess the potential of a compound of Formula I for producing the "cheese effect": […]
Eighteen hours later the animals are anaesthetized with pentobarbitone (60 mg/kg i.p.), in some instances pithed, and in all cases set up for recording heart rate and blood pressure by standard techniques.

NC/C(=C/F)COc1ccc(Cl)cc1Cl [(z)-2-(2',4'-dichlorophenoxy)methyl-3-fluoroallylamine]
5HIAA, Table V (heart) ([1]; 1 mg/kg p.o.): 16 ± 4 | DOPAC, Table V (heart) ([1]; 1 mg/kg p.o.): 56 ± 11 | NE, Table V (heart) ([1]; 1 mg/kg p.o.): 741 ± 56 | HVA, Table V (heart) ([1]; 1 mg/kg p.o., p <0.02): 71 ± 6 | 5HT, Table V (heart) ([1]; 1 mg/kg p.o., spread ± 79): 1017 | 5HIAA, Table V (heart) ([1]; 2.5 mg/kg p.o.): 7 ± 1 | HVA, Table V (heart) ([1]; 2.5 mg/kg p.o.): 53 ± 8 | DOPAC, Table V (heart) ([1]; 2.5 mg/kg p.o.): 46 ± 12 | NE, Table V (heart) ([1]; 2.5 mg/kg p.o.): 762 ± 20 | 5HT, Table V (heart) ([1]; 2.5 mg/kg p.o., spread ± 108): 995 | 5HIAA, Table V (heart) ([1]; 5 mg/kg p.o.): 20 ± 6 | HVA, Table V (heart) ([1]; 5 mg/kg p.o.): 60 ± 16 | DOPAC, Table V (heart) ([1]; 5 mg/kg p.o.): 56 ± 7 | NE, Table V (heart) ([1]; 5 mg/kg p.o.): 875 ± 53 | 5HT, Table V (heart) ([1]; 5 mg/kg p.o., spread ± 154): 1018 | 5HIAA, Table V (heart) ([1]; 10 mg/kg p.o.): 14 ± 2 | HVA, Table V (heart) ([1]; 10 mg/kg p.o.): 55 ± 3 | DOPAC, Table V (heart) ([1]; 10 mg/kg p.o.): 62 ± 5 | NE, Table V (heart) ([1]; 10 mg/kg p.o.): 729 ± 58 | 5HT, Table V (heart) ([1]; 10 mg/kg p.o., spread ± 82): 850 | DOPAC, Table V (heart) ([1]; 25 mg/kg p.o.): 87 ± 27 | NE, Table V (heart) ([1]; 25 mg/kg p.o.): 765 ± 50 | 5HIAA, Table V (heart) ([1]; 25 mg/kg p.o., p <0.02): 26 ± 4 | HVA, Table V (heart) ([1]; 25 mg/kg p.o., p <0.02): 65 ± 4 | 5HT, Table V (heart) ([1]; 25 mg/kg p.o., spread ± 113): 685 | monoamines or their metabolites in the heart, in words ([1]; 1-25 mg/kg p.o.): no consistent changes | % Inhibition, Brain (1) (MAO [2]; 1 mg/kg po): 41% | % Inhibition, Duodenum (1) (MAO [2]; 1 mg/kg po): 10% | % Inhibition, Heart (1) (MAO [2]; 1 mg/kg po): 27% | % Inhibition, Liver (1) (MAO [2]; 1 mg/kg po): 0% | % Inhibition, Brain (1) (MAO [2]; 2.5 mg/kg po): 23% | % Inhibition, Duodenum (1) (MAO [2]; 2.5 mg/kg po): 26% | % Inhibition, Heart (1) (MAO [2]; 2.5 mg/kg po): 0% | % Inhibition, Liver (1) (MAO [2]; 2.5 mg/kg po): 9% | % Inhibition, Brain (1) (MAO [2]; 5 mg/kg po): 34% | % Inhibition, Duodenum (1) (MAO [2]; 5 mg/kg po): 55% | % Inhibition, Heart (1) (MAO [2]; 5 mg/kg po): 0% | % Inhibition, Liver (1) (MAO [2]; 5 mg/kg po): 21% | % Inhibition, Brain (1) (MAO [2]; 10 mg/kg po): 55% | % Inhibition, Duodenum (1) (MAO [2]; 10 mg/kg po): 57% | % Inhibition, Heart (1) (MAO [2]; 10 mg/kg po): 0% | % Inhibition, Liver (1) (MAO [2]; 10 mg/kg po): 25% | % Inhibition, Brain (1) (MAO [2]; 25 mg/kg po): 73% | % Inhibition, Duodenum (1) (MAO [2]; 25 mg/kg po): 65% | % Inhibition, Heart (1) (MAO [2]; 25 mg/kg po): 32% | % Inhibition, Liver (1) (MAO [2]; 25 mg/kg po): 55% | IC50 (MAO [3]): 0.15 µM | MAO inhibitory activity versus time of incubation (MAO [4]; 14C p-tyramine): increased as a function of time of incubation | irreversibility of MAO inhibition (MAO [4]; dialysis against phosphate buffer (24 hours)): irreversible | initial rate of decrease of activity (MAO [4]; versus concentration of inhibitor): increased with increasing concentration of inhibitor | dose needed to inhibit MAO-A activity by more than 50% (MAO-A): greater than 5 mg/kg | Ratio B:A (inhibitory activity against MAO-B versus MAO-A) (MAO-B versus MAO-A): 200 | % Inhibition, Brain (2) (MAO-B; 1 mg/kg po): 85% | % Inhibition, Duodenum (2) (MAO-B; 1 mg/kg po): 73% | % Inhibition, Heart (2) (MAO-B; 1 mg/kg po): 40% | % Inhibition, Liver (2) (MAO-B; 1 mg/kg po): 57% | % Inhibition, Brain (2) (MAO-B; 2.5 mg/kg po): 90% | % Inhibition, Duodenum (2) (MAO-B; 2.5 mg/kg po): 82% | % Inhibition, Heart (2) (MAO-B; 2.5 mg/kg po): 31% | % Inhibition, Liver (2) (MAO-B; 2.5 mg/kg po): 67% | % Inhibition, Brain (2) (MAO-B; 5 mg/kg po): 93% | % Inhibition, Duodenum (2) (MAO-B; 5 mg/kg po): 95% | % Inhibition, Heart (2) (MAO-B; 5 mg/kg po): 40% | % Inhibition, Liver (2) (MAO-B; 5 mg/kg po): 89% | % Inhibition, Brain (2) (MAO-B; 10 mg/kg po): 96% | % Inhibition, Duodenum (2) (MAO-B; 10 mg/kg po): 96% | % Inhibition, Heart (2) (MAO-B; 10 mg/kg po): 40% | % Inhibition, Liver (2) (MAO-B; 10 mg/kg po): 90% | % Inhibition, Brain (2) (MAO-B; 25 mg/kg po): 98% | % Inhibition, Duodenum (2) (MAO-B; 25 mg/kg po): 98% | % Inhibition, Heart (2) (MAO-B; 25 mg/kg po): 64% | % Inhibition, Liver (2) (MAO-B; 25 mg/kg po): 95% | preferential inhibition of MAO-B in the four tissues (MAO-B; at the dose levels tested (1-25 mg/kg po)): preferential inhibition of MAO-B | inhibition of brain MAO-B (MAO-B; doses as low as 1 mg/kg p.o.): greater than 80% | Potentiation of heart rate response to p-tyramine ([5]; 10 mg/kg by mouth, in words): none | cardiovascular responses to tyramine injected intravenously, in words ([5]; 10 mg/kg p.o. 18 h prior to testing): affected to only a small extent | Potentiation of heart rate response to p-tyramine ([5]; 25 mg/kg by mouth): 2.8 fold | potentiation of tyramine ([5]; 25 mg/kg, two experiments): 2-3 fold
